Reference: ChEMBL document CHEMBL4418287, “Lysyl oxidase-like 2 inhibitors and uses thereof” (2018)
Activity calls are given as the source filed them.

Tests used:
Type in all cases: functional, organism-based
Mus musculus [1] = experiment: Antifibrotic activity in C57BL/6 mouse model of bleomycin-induced lung fibrosis assessed as reduction in alpha smooth muscle actin level in lung at 60 mg/kg, po pre-treated 1 hr to 1 day before bleomycin injection and measured after 14 to 28 days by immunohistochemistry analysis
Mus musculus [2] = experiment: Antifibrotic activity in C57BL/6 mouse model of bleomycin-induced lung fibrosis assessed as reduction in cross linked collagen level in lung at 60 mg/kg, po pre-treated 1 hr to 1 day before bleomycin injection and measured after 14 to 28 days by Masson's trichrome staining based assay
Mus musculus [3] = experiment: Antifibrotic activity in C57BL/6 mouse model of bleomycin-induced lung fibrosis assessed as reduction in cross linked collagen level in lung at 60 mg/kg, po pre-treated 1 hr to 1 day before bleomycin injection and measured after 14 to 28 days by Picro-Sirius staining based assay
Mus musculus [4] = experiment: Antifibrotic activity in C57BL/6 mouse model of bleomycin-induced lung fibrosis assessed as reduction in collagen level in lung at 60 mg/kg, po pre-treated 1 hr to 1 day before bleomycin injection and measured after 14 to 28 days by hydroxyproline assay
Mus musculus [5] = experiment: Antifibrotic activity in C57BL/6 mouse model of bleomycin-induced lung fibrosis assessed as reduction in hydroxyproline in lung homogenates at 60 mg/kg, po pre-treated 1 hr to 1 day before bleomycin injection and measured after 14 to 28 days by chloramine T and Erlich's solution based assay

Measured: Activity

NCc1cc(Oc2cccc(C(=O)N3CCN(c4ccccc4)CC3)c2)ncn1
active: all assays above

NCc1cc(Oc2cccc(C(=O)NCc3ccnc(Cl)c3)c2)ncn1
active: all assays above
